The values below are quoted from earlier work in patent publication US9687454B2, “Sublingual and buccal film compositions” (Indivior UK Limited, priority 2009, dated 2017).

For the data set the following is noted: known value.

Regarding `C=CCN1CC[C@]23c4c5ccc(O)c4O[C@H]2C(=O)CC[C@@]3(O)[C@H]1C5` [naloxone], the pKa entry is recorded as “about 7.94”.
